Source: US8269026B2, “Lupane derivatives useful for treating HIV” (priority 2008, dated 2012)
Read-outs that look alike come from different tables or passages of the source.

System: HIV-1 (HIVIIIB) replication in MT2 cell line
Experiment: HIV-1 replication in MT2 cell line with and without 30% human serum (viral RT activity in supernatant)
Type: cell-based
Conditions: Human immunodeficiency virus 1, MT2 cells, average IC50 if tested more than once
Experimental: HIV-1 Replication in MT2 cell line with and without 30% human serum: The cells are infected at a Multiciplicity of Infection (MOI) of 0.5 for 3 h and then washed twice with complete media to remove residual virus. Cells are then resuspended at 0.5×10^6/ml in complete medium (RPMI, 10% FBS, 1% sodium pyruvate), and seeded into 96-well plates (6.25×10^4/well). The cells are cultured in the presence or absence of various concentrations of test compounds in serial dilutions for 3 days at 37° C. The test compounds are serially diluted in complete medium supplemented or not with 30% human serum. After 3 days, 100 μL of cultured medium with cells are replaced with 120 μL of freshly diluted test compounds in complete medium containing or not 30% Human serum. The level of HIV-1 replication is determined at days 5 after infection by the presence of viral RT activity in harvested supernatant fluid. The IC50 and IC90 values for the virus replication are determined by using GRAPHPAD PRISM software.
The IC50 of the compounds tested in accordance with the HIV replication activity assay MT2 (HIVIIIB) are represented in Table 1.

[1] = with 30% human serum, read-out: MT2 (HIVIIIB) with HS 30% IC50 range
[2] = without human serum, read-out: MT2 (HIVIIIB) IC50 range

## CC(C)C1=C2C3CCC4[C@@]5(C)CC[C@H](OC(=O)CC(C)(C)C(=O)O)C(C)(C)C5CC[C@@]4(C)[C@]3(C)CC[C@@]2(NC(=O)OCC2(C)CC2)CC1=O (stereo partly drawn) [20-11, 3β-O-(3′,3′-Dimethylsuccinyl)-17β-(1-methyl-cyclopropylmethoxycarbonylamino)-21-oxolup-18-ene]
[1]
  IC50: < 199 nM

## Cc1nnc(C(=O)N[C@@]23CC[C@]4(C)C(CCC5[C@@]6(C)CC[C@H](OC(=O)[C@H]7CCC[C@@H](C(=O)O)C7)C(C)(C)C6CC[C@]54C)C2=C(C(C)C)C(=O)C3)o1 (stereo partly drawn) [19-81, 3β-O-(cis-Cyclohexane-3′-carboxylic acid-1′-carboxyl)-17β-[(5-methyl-[1,3,4]oxadiazol-2-carbonyl)-amino]-21-oxolup-18-ene]
[1]
  IC50: 200 to 999 nM

## CC(C)C1=C2C3CCC4[C@@]5(C)CC[C@H](OC(=O)CC(C)(C)C(=O)O)C(C)(C)C5CC[C@@]4(C)[C@]3(C)CC[C@@]2(NC(=O)N[C@@H](C)C(F)(F)F)CC1=O (stereo partly drawn) [17-50, 3β-O-(3′,3′-Dimethylsuccinyl)-17β-[N′-((S)-2,2,2-trifluoro-1-methyl-ethyl)-ureido]-21-oxolup-18-ene]
[1]
  IC50: < 199 nM

## CC(C)C1=C2C3CCC4[C@@]5(C)CC[C@H](OC(=O)CC(C)(C)C(=O)O)C(C)(C)C5CC[C@@]4(C)[C@]3(C)CC[C@@]2(NC(=O)NCc2cncnc2)CC1=O (stereo partly drawn) [17-68, 3β-O-(3′,3′-Dimethylsuccinyl)-17β-[N′-(pyrimidin-5-ylmethyl)ureido]-21-oxolup-18-ene]
[1]
  IC50: < 199 nM

## CC(C)C1=C2[C@H]3CC[C@@H]4[C@@]5(C)CC[C@H](OC(=O)CC(C)(C)C(=O)O)C(C)(C)[C@@H]5CC[C@@]4(C)[C@]3(C)CC[C@@]2(NC(=O)c2cnccc2O)CC1=O [19-50, 3β-O-(3′,3′-Dimethylsuccinyl)-17β-(4-hydroxypyridine-3-yl)amido-21-oxolup-18-ene]
[1]
  IC50: < 199 nM

## CC(C)C1=C2[C@H]3CC[C@@H]4[C@@]5(C)CC[C@H](OC(=O)CC(C)(C)C(=O)O)C(C)(C)[C@@H]5CC[C@@]4(C)[C@]3(C)CC[C@@]2(NC(=O)c2cnccn2)CC1=O [19-16, 3β-O-(3′,3′-Dimethylsuccinyl)-17β-(pyrazin-2-yl)amido-21-oxolup-18-ene]
[1]
  IC50: < 199 nM

## CC(C)C1=C2C3CCC4[C@@]5(C)CC[C@H](OC(=O)CC(C)(C)C(=O)O)C(C)(C)C5CC[C@@]4(C)[C@]3(C)CC[C@@]2(NC(=O)OC[C@@H]2CCCN2C)CC1=O (stereo partly drawn) [20-20, 3β-O-(3′,3′-Dimethylsuccinyl)-17β-((S)1-methylpyrrolidine-2-methoxycarbonylamino)-21-oxolup-18-ene]
[1]
  IC50: < 199 nM

## CC(C)C1=C2[C@H]3CC[C@@H]4[C@@]5(C)CC[C@H](OC(=O)CC(C)(C)C(=O)O)C(C)(C)[C@@H]5CC[C@@]4(C)[C@]3(C)CC[C@@]2(NC(=O)NC2CCN(C(=O)OC(C)(C)C)CC2)CC1=O [17-9, 3β-O-(3′,3′-Dimethylsuccinyl)-17β[N′-(1-tert-butyloxycarbonyl-piperidin-4-yl)-ureido]-21-oxolup-18-ene]
[1]
  IC50: < 199 nM

## CC(C)C1=C2C3CCC4[C@@]5(C)CC[C@H](OC(=O)CC(C)(C)C(=O)O)C(C)(C)C5CC[C@@]4(C)[C@]3(C)CC[C@@]2(NC(=O)NCc2ccsc2)CC1=O (stereo partly drawn) [17-75, 3β-O-(3′,3′-Dimethylsuccinyl)-17β-[N′-(thiophen-3-ylmethyl)-ureido]-21-oxolup-18-ene]
[1]
  IC50: < 199 nM

## CC(C)C1=C2C3CCC4[C@@]5(C)CC[C@H](OC(=O)CC(C)(C)C(=O)O)C(C)(C)C5CC[C@@]4(C)[C@]3(C)CC[C@@]2(NC(=O)OCCN2CCCC2)CC1=O (stereo partly drawn) [20-23, 3β-O-(3′,3′-Dimethylsuccinyl)-17β-(2-pyrrolidin-1-ethoxycarbonylamino)-21-oxolup-18-ene]
[1]
  IC50: < 199 nM

## CC(C)C1=C2C3CCC4[C@@]5(C)CC[C@H](OC(=O)CC(C)(C)C(=O)O)C(C)(C)C5CC[C@@]4(C)[C@]3(C)CC[C@@]2(NC(=O)[C@@H]2CCCN2C(C)C)CC1=O (stereo partly drawn) [19-56]
[1]
  IC50: < 199 nM

## CN[C@@]12CC[C@]3(C)[C@H](CC[C@@H]4[C@@]5(C)CC[C@H](OC(=O)CC(C)(C)C(=O)O)C(C)(C)[C@@H]5CC[C@]43C)C1=C(C(C)C)C(=O)C2 [16-2, 3β-O-(3′,3′-Dimethylsuccinyl)-17β-(methylamino)-21-oxolup-18-ene]
[1]
  IC50: < 199 nM

## CC(C)C1=C2C3CCC4[C@@]5(C)CC[C@H](OC(=O)CC(C)(C)C(=O)O)C(C)(C)C5CC[C@@]4(C)[C@]3(C)CC[C@@]2(NC(=O)OCC2CCCCC2)CC1=O (stereo partly drawn) [20-7, 3β-O-(3′,3′-Dimethylsuccinyl)-17β-cyclohexylmethoxycarbonylamino-21-oxolup-18-ene]
[1]
  IC50: < 199 nM
[2]
  IC50: < 199 nM

## CC(C)C1=C2C3CCC4[C@@]5(C)CC[C@H](OC(=O)CC(C)(C)C(=O)O)C(C)(C)C5CC[C@@]4(C)[C@]3(C)CC[C@@]2(NC(=O)N2CCC(N)CC2)CC1=O (stereo partly drawn) [17-24, 3β-O-(3′,3′-Dimethylsuccinyl)-17β-[(4-amino-piperidine-1-carbonyl)-amino]-21-oxolup-18-ene]
[1]
  IC50: 200 to 999 nM

## CC(C)C1=C2[C@H]3CC[C@@H]4[C@@]5(C)CC[C@H](OC(=O)CC(C)(C)C(=O)O)C(C)(C)[C@@H]5CC[C@@]4(C)[C@]3(C)CC[C@@]2(NC(=O)c2ccncc2)CC1=O [19-14, 3β-O-(3′,3′-Dimethylsuccinyl)-17β-(pyridin4-yl)amido-21-oxolup-18-ene]
[1]
  IC50: < 199 nM

## CC(C)C1=C2[C@H]3CC[C@@H]4[C@@]5(C)CC[C@H](OC(=O)CC(C)(C)C(=O)O)C(C)(C)[C@@H]5CC[C@@]4(C)[C@]3(C)CC[C@@]2(NC(=O)N2CCN(C(=O)OC(C)(C)C)CC2)CC1=O [17-14, 3β-O-(3′,3′-Dimethylsuccinyl)-17β-[(4-tert-butyloxycarbonyl-piperazine-1-carbonyl)-amino]-21-oxolup-18-ene]
[1]
  IC50: < 199 nM
[2]
  IC50: < 199 nM

## CC(C)C1=C2C3CCC4[C@@]5(C)CC[C@H](OC(=O)CC(C)(C)C(=O)O)C(C)(C)C5CC[C@@]4(C)[C@]3(C)CC[C@@]2(NC(=O)NCc2ccncn2)CC1=O (stereo partly drawn) [17-52, 3β-O-(3′,3′-Dimethylsuccinyl)-17β-[N′-(pyrimidin-4-ylmethyl)ureido]-21-oxolup-18-ene]
[1]
  IC50: < 199 nM

## Cc1ncccc1C(=O)N[C@@]12CC[C@]3(C)[C@H](CC[C@@H]4[C@@]5(C)CC[C@H](OC(=O)CC(C)(C)C(=O)O)C(C)(C)[C@@H]5CC[C@]43C)C1=C(C(C)C)C(=O)C2 [19-46, 3β-O-(3′,3′-Dimethylsuccinyl)-17β-(2-methylpyridin-3-yl)amido-21-oxolup-18-ene]
[1]
  IC50: < 199 nM

## CC(C)NC(=O)N[C@@]12CC[C@]3(C)C(CCC4[C@@]5(C)CC[C@H](OC(=O)CC(C)(C)C(=O)O)C(C)(C)C5CC[C@]43C)C1=C(C(C)C)C(=O)C2 (stereo partly drawn) [17-4, 3β-O-(3′,3′-Dimethylsuccinyl)-17β-[N′-(isopropyl)ureido]-21-oxolup-18-ene]
[1]
  IC50: < 199 nM
[2]
  IC50: < 199 nM

## CC(C)C1=C2[C@H]3CC[C@@H]4[C@@]5(C)CC[C@H](OC(=O)CC(C)(C)C(=O)O)C(C)(C)[C@@H]5CC[C@@]4(C)[C@]3(C)CC[C@@]2(NC(=O)c2ccccc2)CC1=O [19-2, 3β-O-(3′,3% Dimethylsuccinyl)-17β-benzamido-21-oxolup-18-ene]
[1]
  IC50: < 199 nM
[2]
  IC50: < 199 nM

## Cc1noc(C(=O)N[C@@]23CC[C@]4(C)C(CCC5[C@@]6(C)CC[C@H](OC(=O)CC(C)(C)C(=O)O)C(C)(C)C6CC[C@]54C)C2=C(C(C)C)C(=O)C3)n1 (stereo partly drawn) [19-67, 3β-O-(3′,3′-Dimethylsuccinyl)-17β-(3-methyl-[1,2,4]oxadiazole-5-amido)-21-oxolup-18-ene]
[1]
  IC50: < 199 nM

## CC(C)C1=C2[C@H]3CC[C@@H]4[C@@]5(C)CC[C@H](OC(=O)CC(C)(C)C(=O)O)C(C)(C)[C@@H]5CC[C@@]4(C)[C@]3(C)CC[C@@]2(NC(=O)OC(C)(C)C)CC1=O [14-1, 3β-O-(3′,3′-Dimethylsuccinyl)-17β-tert-butyloxycarbonylamino-21-oxolup-18-ene]
[1]
  IC50: < 199 nM
[2]
  IC50: < 199 nM

## CC(C)C1=C2C3CCC4[C@@]5(C)CC[C@H](OC(=O)CC(C)(C)C(=O)O)C(C)(C)C5CC[C@@]4(C)[C@]3(C)CC[C@@]2(NC(=O)NC(C)(C)C2CCCCC2)CC1=O (stereo partly drawn) [17-70, 3β-O-(3′,3′-Dimethylsuccinyl)-17β-[N′-(1-methyl-1-cyclohexyl-ethyl)-ureido]-21-oxolup-18-ene]
[1]
  IC50: > 1000 nM

## CC(C)C1=C2[C@H]3CC[C@@H]4[C@@]5(C)CC[C@H](OC(=O)CC(C)(C)C(=O)O)C(C)(C)[C@@H]5CC[C@@]4(C)[C@]3(C)CC[C@@]2(NC(=O)NC2CN(C(=O)OC(C)(C)C)C2)CC1=O [17-33, 3β-O-(3′,3′-Dimethylsuccinyl)-17β-[N′-(1-tert-butyloxycarbonyl-azetidin-3-yl)-ureido]-21-oxolup-18-ene]
[1]
  IC50: < 199 nM

## CC(=O)N[C@@]12CC[C@]3(C)[C@H](CC[C@@H]4[C@@]5(C)CC[C@H](OC(=O)CC(C)(C)C(=O)O)C(C)(C)[C@@H]5CC[C@]43C)C1=C(C(C)C)C(=O)C2 [19-1, 3β-O-(3′,3′-Dimethylsuccinyl)-17β-acetylamino-21-oxolup-18-ene]
[1]
  IC50: < 199 nM
[2]
  IC50: < 199 nM

## CC(C)C1=C2C3CCC4[C@@]5(C)CC[C@H](OC(=O)CC(C)(C)C(=O)O)C(C)(C)C5CC[C@@]4(C)[C@]3(C)CC[C@@]2(NC(=O)Nc2cccnc2)CC1=O (stereo partly drawn) [17-6, 3β-O-(3′,3′-Dimethylsuccinyl)-17β-[N′-(pyridin-3-yl)ureido]-21-oxolup-18-ene]
[1]
  IC50: < 199 nM
[2]
  IC50: < 199 nM
